Measured values: paper PMC10041537, “Molecular origins of mutational spectra produced by the environmental carcinogen N-nitrosodimethylamine and SN1 chemotherapeutic agents” (NAR Cancer, 2023)

Tests used:
gpt reporter gene = type: in vivo, RaDR^R/R;gpt^g/g;Mgmt^−/− mice; details: liver, NDMA-treated Mgmt−/− vs NDMA-treated WT
Experimental: (§1) Most experiments utilized C57BL/6J gptΔ transgenic mice ([49],[50]), a gift from T. Nohmi. Some experiments used RaDR^R/R;gpt^g/g;Mgmt^−/− mice, which were created by crossing RaDR^R/R;gpt^g/gmice ([37]) with Mgmt^−/− mice ([51]). NDMA was synthesized and characterized as previously described ([52]) (Fig. S1). […] The first dose (3.5 mg/kg in 10 μl) was administered at 8 days of age, and the second dose (7 mg/kg in 20 μl) was administered at 15 days of age. Vehicle treated mice were administered equivalent volumes of saline. Mice were euthanized at ten weeks post-injection by CO2 inhalation. Both male and female mice were used in all experimental groups (n = 5) in all mouse experiments.
The gptΔ assay is the technology traditionally used with the gptΔ mouse to probe for small mutations in the 459 bp gpt transgene, of which approximately 160 copies exist in the mouse diploid genome ([50]). […]
The λ-EG10 phage was packaged in vitro from genomic DNA using a Transpack packaging extract (Agilent Technologies) and then transfected into E. coli YG6020 expressing Cre-recombinase, generating a 6.4 kb plasmid carrying the gpt and chloramphenicol acetyltransferase genes. […] The mutant frequency of each group was calculated (ratio of total 6-TG-resistant colonies to the average of chloramphenicol resistant colonies). The samples were processed and analyzed in a blinded fashion. […]

C57BL/6J mice = tested on: C57BL/6J mice; set-up: method as in PMID 9500198; details: cited from earlier work
mouse genome = assay: Duplex sequencing, high-resolution mutational spectra and pLOGO of liver and lung of NDMA-treated wild-type mice; type: in vivo, gptΔ C57BL/6J mice
Experimental: as §1
To determine the identity of mutations and the sequence contexts in which they occur, we utilized a form of error-corrected sequencing called duplex sequencing (DS). Previously, we described how DS can be used directly on genomic samples derived from the gptΔ mouse to yield high-resolution mutational spectra in an unbiased (unselected) manner ([49]). Unlike the traditional gptΔ assay, DS evaluates the mutations throughout the entire 6382 bp transgenic region (which contains the gpt gene), without the need for a phenotypic selection. In the present work, 6.4 kb gpt-containing plasmids from gptΔ mouse livers and cell culture were isolated using a Miniprep Kit (Qiagen) following instructions of the manufacturer. Approximately 6 μg of plasmid DNA was diluted in 1× TE buffer-low EDTA, pH 8 (Thermo Scientific), transferred to a microTUBE AFA Fiber Pre-Slit Snap-Cap (Covaris) and sonicated using a Covaris E220 Focused-ultrasonicator. The following program was used to obtain 300–350 bp fragments: peak incident power = 140 W, duty factor = 10%, cycles per burst = 200, treatment time = 80 s, temperature = 4–7°C. DS libraries for gptΔ C57BL/6J mice and MEFs were prepared using the NEBNext Ultra II DNA Library Prep (E7103, NEB) or as described in Chawanthayatham et al. ([49]) and sequenced on a NextSeq500 or NovaSeq 6000 Illumina platform by using a 150 bp paired-end protocol (MIT BioMicro Center). DS libraries for the gptΔ mouse lungs and Mgmt^−/− mice were prepared using an input of 1 μg or 500 ng genomic DNA, respectively, using a TwinStrand Biosciences, Inc. Mouse Mutagenesis Kit according to the manufacturer's protocol. This kit uses probes that hybridize to 20 genomic regions, each 2.4 kb long. The genomic coordinates are provided in Supplementary Table S1. These probes were purposely selected to map in intronic and intergenic regions, to avoid selection bias. The libraries were sequenced on an Illumina NovaSeq 6000 DNA sequencer on an S4 flow cell using a 150 bp paired-end protocol (MIT BioMicro Center).
For each sample, the two fastq files generated by the Illumina sequencer were converted into an unaligned bam file, using Picard Tools. The resulting bam file was processed using UnifiedConsensusMaker.py (version 3.0) as available from the Kennedy Lab at University of Washington (https://github.com/Kennedy-Lab-UW/Duplex-Sequencing). Briefly, this program queries the molecular tags on each read and assembles them into families (strands with the same tag). These are subsequently collapsed into single-strand consensus sequences (SSCS). Then, the software identifies the SSCS corresponding to the complementary strand; these are grouped together as a double-strand consensus sequence (DCS). Unpaired SSCSs were flagged and ignored for the rest of the analysis. Sequence information was accepted only when the information from the two complementary DNA strands was in perfect agreement. The DCSs (as fastq files) were subsequently aligned to the target region (6382 nt in the λ-EG10 genome) using Burrows-Wheeler aligner. Unmapped reads were filtered out. Finally, the properly aligned DCS reads were trimmed (bases 1–8 and 120–137) and collapsed into a pileup file using SamTools. […]

[1] = C57BL/6J male mice, neonatal model
[2] = C at -6 relative to G→A mutation, liver, WT mice

CN(C)N=O [NDMA, N-nitrosodimethylamine]
enhanced mutant frequency in Mgmt−/− vs wild-type mice, females (gpt reporter gene; females): 3 fold | enhanced mutant frequency in Mgmt−/− vs wild-type mice, males (gpt reporter gene; males): 4 fold | incidence of hepatic tumors (C57BL/6J mice; [1]): ~80% | incidence of lung tumors (C57BL/6J mice; [1]): 7% | maximum tolerated dose (C57BL/6J mice; total dose, i.p., neonatal mice): 10.5 mg/kg | pLOGO Frequency (%) (mouse genome; A at 1, lung, WT mice): 32.2% | pLOGO Value (log-odds binomial probability) (mouse genome; A at 1, lung, WT mice): 5.89 | pLOGO Frequency (%) (mouse genome; A at 2, lung, WT mice): 32.0% | pLOGO Value (log-odds binomial probability) (mouse genome; A at 2, lung, WT mice): 4.51 | pLOGO Frequency (%) (mouse genome; A at 3, liver, WT mice): 28.4% | pLOGO Value (log-odds binomial probability) (mouse genome; A at 3, liver, WT mice): 4.00 | pLOGO Frequency (%) (mouse genome; A at -1, liver, WT mice): 30.9% | pLOGO Value (log-odds binomial probability) (mouse genome; A at -1, liver, WT mice): 52.74 | pLOGO Frequency (%) (mouse genome; A at -1, lung, WT mice): 45.9% | pLOGO Value (log-odds binomial probability) (mouse genome; A at -1, lung, WT mice): 37.22 | pLOGO Frequency (%) (mouse genome; A at -2, lung, WT mice): 34.3% | pLOGO Value (log-odds binomial probability) (mouse genome; A at -2, lung, WT mice): 6.29 | pLOGO Frequency (%) (mouse genome; C at 1, liver, WT mice): 38.4% | pLOGO Value (log-odds binomial probability) (mouse genome; C at 1, liver, WT mice): 27.34 | pLOGO Frequency (%) (mouse genome; C at 4, liver, WT mice): 26.0% | pLOGO Value (log-odds binomial probability) (mouse genome; C at 4, liver, WT mice): 6.07 | pLOGO Frequency (%) (mouse genome; C at -3, liver, WT mice): 31.4% | pLOGO Value (log-odds binomial probability) (mouse genome; C at -3, liver, WT mice): 22.96 | pLOGO Frequency (%) (mouse genome; C at -5, liver, WT mice): 26.7% | pLOGO Value (log-odds binomial probability) (mouse genome; C at -5, liver, WT mice): 4.79 | pLOGO Frequency (%) (mouse genome; [2]): 28.0% | pLOGO Value (log-odds binomial probability) (mouse genome; [2]): 3.68 | pLOGO Frequency (%) (mouse genome; G at -1, liver, WT mice): 47.4% | pLOGO Value (log-odds binomial probability) (mouse genome; G at -1, liver, WT mice): 193.23 | pLOGO Frequency (%) (mouse genome; G at -1, lung, WT mice): 39.2% | pLOGO Value (log-odds binomial probability) (mouse genome; G at -1, lung, WT mice): 64.57 | pLOGO Frequency (%) (mouse genome; T at 1, liver, WT mice): 23.8% | pLOGO Value (log-odds binomial probability) (mouse genome; T at 1, liver, WT mice): 4.97 | pLOGO Frequency (%) (mouse genome; T at 1, lung, WT mice): 29.1% | pLOGO Value (log-odds binomial probability) (mouse genome; T at 1, lung, WT mice): 10.31 | sequence context dependency of GC→AT mutations (mouse genome; WT mice, Pu = purine, N = any base): 5’-PuGN-3’ | AT→GC mutations, proportion of total number of mutations (mouse genome; WT mice, after background subtraction): 4.6% | dominant mutation type of mutational spectrum (mouse genome; liver and lung of WT mice, 10 weeks post NDMA): GC→AT transition mutations
